{"source": "patent US20240293464A1", "about": "“TISSUE REPAIR” (priority 2021, published 2024)", "assay_type_in_all_cases": "in vivo, horse", "key": {"tendon/ligament injuries": {"system": "tendon/ligament injuries", "assay": "Single armed pilot trial in equine connective tissue injuries, lesion size by ultrasonography (Example 7)", "protocol": "The time since injury of each horse was noted. […] Side effects and tolerability were also recorded.\n14 horses with 15 injured limbs were enrolled in the study between March and May 2021. The injuries comprised 9 tendon and 6 ligament injuries, with 12 injuries on the left side of the horse and 3 on the right. The mean time since injury was ˜ 12 months. The tendon injuries comprised 2 acute injuries (<1 month old) and 7 chronic injuries, with a mean time since injury of 13.1 months, and a range of 9-20 months. The ligamentous injuries comprised 6 chronic injuries, with a mean time since injury of 14.3 months and a range of 4-30 months.\nAll statistical analysis was performed on SPSS v27. Missing values were handled by last observation carried forward. Descriptive statistics were used to describe baseline and follow-up values. The results were first tested for normality using the Shapiro-Wilk test. The results at weeks 3, 5 and 7 were then analysed compared to baseline using two-tailed paired Student's t-tests once normality was proven. One-tailed Pearson correlation test was performed to determine if outcomes was correlated with time since injury as we hypothesise that older, more established injuries may benefit less from our supplementation."}, "tendon/ligament lesions": {"system": "tendon/ligament lesions", "assay": "Equine tendon/ligament lesions from original injury through treatment (Example 8)", "settings": "oral 160,000 IU once per day", "protocol": "Side effects and tolerability were also recorded. The administration of vitamin A supplement, and the vitamin A supplement used, were the same as that of Example 7. 7 horses with 7 injured limbs were enrolled in the study between March and May 2021. The injuries comprised 3 tendon and 4 ligament injuries. The inclusion criteria were polo horses with diagnosed tendon/ligament injuries regardless of time since injury. The exclusion criteria were horses with acute connective tissue injuries. All statistical analysis was performed on SPSS v27. Missing values were handled by last observation carried forward. Descriptive statistics were used to describe baseline and follow-up values. The results were first tested for normality using the Shapiro-Wilk test. The results at weeks 3, 5 and 7 were then analysed compared to baseline using two-tailed paired Student's t-tests once normality was proven."}, "Tendon injury": {"system": "Tendon injury", "assay": "Echogenicity ratio of tendon lesion or injured tendon to adjacent healthy tendon (Example 9)", "text": "Structures composed of different tissue will have different echogenicities. The health of a tissue such as a tendon can be assessed by comparing the echogenicity of the tissue with that of a corresponding healthy tissue. Healthy tendons comprising native tissue and normal architecture are usually hyperechoic and appear white on the sonogram; they are capable of reflecting ultrasound that is cast over the tissue. An injured tendon comprising a lesion will appear as less hyperechoic, and more hypoechoic as tendon fibers are interrupted and defects are usually filled with fluid, blood, or fat. Severe lesions will be anechoic, and will display as completely dark on the sonogram. […] The echogenicity of a tendon lesion was assessed by comparing grey scale statistics of the tendon lesion with the values of healthy adjacent tendon tissue (FIG. 18(b)). Due to equine anatomy, there is always a directly adjacent healthy tendon to use as a control (ultrasonography is […] by depth of tissue). The statistics comprised determining the mean pixel intensity at a number of random points on the lesion and the healthy tendon, and calculating a mean value for the echogenicity of each tissue. A ratio of mean echnogenicity of the lesion and the healthy tissue was determined to assess the extent of damage/healing at the lesion. Vitamin A supplement used, its administration, and the subjects investigated, comprise those of Example 7."}, "[1]": {"system": "connective tissue injuries (tendon/ligament lesions)", "assay": "Post-treatment maintenance dose, double-blind randomised placebo-controlled trial (Example 10)", "text": "Maintenance dose of vitamin A palmitate (retinyl palmitate) in a vehicle, delivered in dry feed at 8,000 IU per kg feed dry matter.\nThe methodology and subjects of the investigation comprise those of Example 7.\nThe trial was a double-blind randomised controlled trial."}, "injured tendon/ligament": {"system": "injured tendon/ligament", "assay": "Effect of activity level on connective tissue improvement (Example 11)", "settings": "week 7, full-treatment doses", "protocol": "The vitamin A supplement used, its administration, and the subjects of the investigation comprise those of Example 7. Improvement (as a % of baseline) of the injured tendon/ligament was performed at 7 weeks into the trial. All 14 horses were administered full-treatment doses of vitamin A supplement from week 0 to week 7 whilst being put to work. 7 horses were put on light/no work and 7 on full work. The allocation of each horse into one of the two groups was determined by the respective owner of the horse, who decided based on whether they could afford for the horse to be put on light work (and thus investigate the isolated effect of vitamin A supplement on lesion progression) or whether the horse was required to be put back to full work."}}, "data": [{"smiles": "CCCCCCCCCCCCCCCC(=O)OC/C=C(C)/C=C/C=C(C)/C=C/C1=C(C)CCCC1(C)C", "note": "[vitamin A supplement, Vitamin A palmitate]", "values": [{"measurement": "Mean lesion size", "setting": "tendon/ligament injuries; baseline, 15 injuries", "value": 41.44, "unit": "%"}, {"measurement": "Percentage improvement, baseline to week 7", "setting": "tendon/ligament injuries; outlier at 20 months since injury, complete avulsion of the ligament", "value": "−25", "unit": "%"}, {"measurement": "Percentage improvement, baseline to week 7", "setting": "tendon/ligament injuries; two outlier subjects at 12 months since injury", "value": 100, "unit": "%"}, {"measurement": "Mean lesion size", "setting": "tendon/ligament injuries; week 3, oral 160,000 IU once per day, p=0.169 vs baseline", "value": 35.87, "unit": "%"}, {"measurement": "Mean lesion size", "setting": "tendon/ligament injuries; week 5, oral 160,000 IU once per day, p<0.001 vs baseline", "value": 28.37, "unit": "%"}, {"measurement": "Mean lesion size", "setting": "tendon/ligament injuries; week 7, oral 160,000 IU once per day, p=0.006 vs baseline", "value": 31.73, "unit": "%"}, {"measurement": "Change in ligament lesion size, baseline to week 7", "setting": "tendon/ligament lesions; ligaments, outlier excluded (n=3)", "value": "reduction in the size of two of the three lesions"}, {"measurement": "Mean improvement in lesion size, baseline to week 7", "setting": "tendon/ligament lesions; tendons n=3, chronic injuries, p=0.04", "value": 30.62, "unit": "%"}, {"measurement": "% increase of mean echogenicity ratio (lesion/healthy tendon)", "setting": "Tendon injury; baseline to week 7", "value": 32.7, "unit": "%"}, {"measurement": "Mean echogenicity ratio of tendon lesion to adjacent healthy tendon", "setting": "Tendon injury; baseline, 1 = perfect regeneration of native tendon", "value": 0.52}, {"measurement": "Mean echogenicity ratio of injured tendon (area of lesion excluded) to adjacent healthy tendon", "setting": "Tendon injury; week 0", "value": 0.76}, {"measurement": "Mean echogenicity ratio of injured tendon (area of lesion excluded) to adjacent healthy tendon", "setting": "Tendon injury; week 7, oral 160,000 IU once per day", "value": 0.82}, {"measurement": "Mean echogenicity ratio of tendon lesion to adjacent healthy tendon", "setting": "Tendon injury; week 7, oral 160,000 IU once per day, 1 = perfect regeneration", "value": 0.69}, {"measurement": "Change in lesion size from week 7 to week 14, intragroup", "setting": "[1]; maintenance dose 80,000 IU/day, compared with placebo group", "value": "−24.5", "unit": "%"}, {"measurement": "Mean lesion size of the maintenance dose group", "setting": "[1]; week 14, after 7 weeks of 80,000 IU/day following 7 weeks of full dose, 31.73% at week 7", "value": "~20.00", "unit": "%"}, {"measurement": "Lesion health on ultrasonogram in one re-injured subject", "setting": "[1]; week 14, after 7 weeks of maintenance dose, FIG. 21", "value": "the health of this particular lesion deteriorated"}, {"measurement": "Improvement from baseline", "setting": "injured tendon/ligament; horses on full work (n=7)", "value": 45.05, "unit": "%"}, {"measurement": "Improvement from baseline", "setting": "injured tendon/ligament; horses on light or no work (n=7)", "value": 30.35, "unit": "%"}]}]}
